The NIST ThermoML archive (doi:10.1021/je300799f)
Numbers after ± are expanded uncertainties.

Experiment: xn = mol fraction of the nth substance listed
Details: 101 kPa, Liquid, Vibrating tube method

CCCC(=O)OC [methyl butanoate] + CCCCCCCCC
Details	mass density [kg/m3]
288.15 K, x1 = 0.0544	727.14 ± 0.25
288.15 K, x1 = 0.0804	729.99 ± 0.25
288.15 K, x1 = 0.1647	739.66 ± 0.25
288.15 K, x1 = 0.2172	746.06 ± 0.25
288.15 K, x1 = 0.2378	748.63 ± 0.26
288.15 K, x1 = 0.2963	756.43 ± 0.26
288.15 K, x1 = 0.3419	762.85 ± 0.26
288.15 K, x1 = 0.3986	771.19 ± 0.26
288.15 K, x1 = 0.4425	778.04 ± 0.26
288.15 K, x1 = 0.5007	787.63 ± 0.26
288.15 K, x1 = 0.5488	796.09 ± 0.26
288.15 K, x1 = 0.604	806.21 ± 0.26
288.15 K, x1 = 0.6553	816.39 ± 0.27
288.15 K, x1 = 0.6959	824.67 ± 0.27
288.15 K, x1 = 0.7507	836.81 ± 0.27
288.15 K, x1 = 0.8114	850.96 ± 0.28
288.15 K, x1 = 0.8553	862.13 ± 0.28
288.15 K, x1 = 0.8988	873.46 ± 0.29
288.15 K, x1 = 0.9507	888.13 ± 0.29
288.15 K, x1 = 1	903.31 ± 0.23
298.15 K, x1 = 0.0495	718.76 ± 0.25
298.15 K, x1 = 0.0998	724.04 ± 0.25
298.15 K, x1 = 0.1729	732.49 ± 0.25
298.15 K, x1 = 0.1935	734.88 ± 0.25
298.15 K, x1 = 0.2473	741.54 ± 0.25
298.15 K, x1 = 0.3035	748.92 ± 0.26
298.15 K, x1 = 0.3558	756.23 ± 0.26
298.15 K, x1 = 0.4462	769.69 ± 0.26
298.15 K, x1 = 0.5497	786.99 ± 0.26
298.15 K, x1 = 0.6465	805.02 ± 0.27
298.15 K, x1 = 0.7509	826.86 ± 0.27
298.15 K, x1 = 0.7772	832.78 ± 0.28
298.15 K, x1 = 0.8038	839.14 ± 0.28
298.15 K, x1 = 0.9052	864.6 ± 0.28
298.15 K, x1 = 0.953	878.19 ± 0.29
298.15 K, x1 = 1	892.31 ± 0.23
308.15 K, x1 = 0.0554	711.45 ± 0.25
308.15 K, x1 = 0.1002	716.1 ± 0.25
308.15 K, x1 = 0.1653	723.29 ± 0.25
308.15 K, x1 = 0.2108	728.63 ± 0.25
308.15 K, x1 = 0.2545	734.04 ± 0.26
308.15 K, x1 = 0.3082	740.93 ± 0.26
308.15 K, x1 = 0.3598	748.08 ± 0.26
308.15 K, x1 = 0.409	755.11 ± 0.26
308.15 K, x1 = 0.4594	762.76 ± 0.26
308.15 K, x1 = 0.4993	769.14 ± 0.26
308.15 K, x1 = 0.5504	777.76 ± 0.26
308.15 K, x1 = 0.6001	786.6 ± 0.26
308.15 K, x1 = 0.6482	795.68 ± 0.27
308.15 K, x1 = 0.6945	804.91 ± 0.27
308.15 K, x1 = 0.7463	815.78 ± 0.27
308.15 K, x1 = 0.7964	827.07 ± 0.28
308.15 K, x1 = 0.8451	838.68 ± 0.28
308.15 K, x1 = 0.8948	851.33 ± 0.28
308.15 K, x1 = 0.9497	866.34 ± 0.29
308.15 K, x1 = 1	881.19 ± 0.24
318.15 K, x1 = 0.0234	700.32 ± 0.25
318.15 K, x1 = 0.0731	705.17 ± 0.25
318.15 K, x1 = 0.1033	708.28 ± 0.25
318.15 K, x1 = 0.1552	713.83 ± 0.25
318.15 K, x1 = 0.1993	718.91 ± 0.26
318.15 K, x1 = 0.2571	725.77 ± 0.26
318.15 K, x1 = 0.3123	732.79 ± 0.26
318.15 K, x1 = 0.3568	738.79 ± 0.26
318.15 K, x1 = 0.4135	746.74 ± 0.26
318.15 K, x1 = 0.4555	753.07 ± 0.26
318.15 K, x1 = 0.5093	761.51 ± 0.26
318.15 K, x1 = 0.5565	769.3 ± 0.26
318.15 K, x1 = 0.6043	777.7 ± 0.26
318.15 K, x1 = 0.6544	787.04 ± 0.27
318.15 K, x1 = 0.7067	797.4 ± 0.27
318.15 K, x1 = 0.7541	807.31 ± 0.27
318.15 K, x1 = 0.8037	818.4 ± 0.28
318.15 K, x1 = 0.8594	831.69 ± 0.28
318.15 K, x1 = 0.9068	843.76 ± 0.28
318.15 K, x1 = 0.9511	855.91 ± 0.29
318.15 K, x1 = 1	870.06 ± 0.24
328.15 K, x1 = 0.0272	692.57 ± 0.25
328.15 K, x1 = 0.0562	695.34 ± 0.25
328.15 K, x1 = 0.078	697.49 ± 0.25
328.15 K, x1 = 0.1041	700.12 ± 0.26
328.15 K, x1 = 0.1502	704.97 ± 0.26
328.15 K, x1 = 0.2023	710.73 ± 0.26
328.15 K, x1 = 0.2654	718.16 ± 0.26
328.15 K, x1 = 0.3073	723.36 ± 0.26
328.15 K, x1 = 0.3624	730.61 ± 0.26
328.15 K, x1 = 0.412	737.45 ± 0.26
328.15 K, x1 = 0.4567	744 ± 0.26
328.15 K, x1 = 0.5083	751.95 ± 0.26
328.15 K, x1 = 0.5549	759.51 ± 0.26
328.15 K, x1 = 0.6157	770.1 ± 0.26
328.15 K, x1 = 0.6554	777.42 ± 0.27
328.15 K, x1 = 0.7027	786.49 ± 0.27
328.15 K, x1 = 0.749	795.99 ± 0.27
328.15 K, x1 = 0.8511	819.04 ± 0.28
328.15 K, x1 = 0.9051	832.64 ± 0.28
328.15 K, x1 = 0.9506	844.76 ± 0.29
328.15 K, x1 = 1	858.8 ± 0.24
